# Literature values, collected in patent US20090181086A1 (priority 2008, published 2009).
# Like-named read-outs stand apart in the source and are kept apart here.
# Experiments:
# human albumin = human albumin (Homo sapiens, UniProt P02768); conditions: concentration range of 1-100 ng/mL
# CYP1A2 = CYP1A2 (Homo sapiens, UniProt P05177); conditions: in vitro
# platelet MAO-B = platelet MAO-B (Homo sapiens, UniProt P27338)
# [1] = tested on: monoamine oxidase type B (MAO-B); conditions: ex vivo, brain, liver and intestinal tissues
# [2] = oral 14C-labeled rasagiline, over 7 days
# Chain of platelet MAO-B (P27338 whole entry): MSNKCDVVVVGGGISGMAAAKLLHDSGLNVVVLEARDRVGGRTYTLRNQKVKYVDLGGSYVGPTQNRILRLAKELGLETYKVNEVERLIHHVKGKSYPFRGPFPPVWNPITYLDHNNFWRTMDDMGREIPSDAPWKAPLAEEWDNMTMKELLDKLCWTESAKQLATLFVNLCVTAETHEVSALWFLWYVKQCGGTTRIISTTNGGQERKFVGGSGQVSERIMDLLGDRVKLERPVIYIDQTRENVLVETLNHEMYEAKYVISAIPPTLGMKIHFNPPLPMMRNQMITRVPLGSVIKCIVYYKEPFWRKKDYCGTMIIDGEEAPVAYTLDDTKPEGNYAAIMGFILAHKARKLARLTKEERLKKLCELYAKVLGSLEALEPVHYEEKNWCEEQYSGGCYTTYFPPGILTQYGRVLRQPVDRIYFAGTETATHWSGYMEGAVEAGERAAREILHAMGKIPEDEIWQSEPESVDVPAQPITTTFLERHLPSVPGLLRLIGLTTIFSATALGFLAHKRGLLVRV
# Chain of human albumin (P02768 25-609): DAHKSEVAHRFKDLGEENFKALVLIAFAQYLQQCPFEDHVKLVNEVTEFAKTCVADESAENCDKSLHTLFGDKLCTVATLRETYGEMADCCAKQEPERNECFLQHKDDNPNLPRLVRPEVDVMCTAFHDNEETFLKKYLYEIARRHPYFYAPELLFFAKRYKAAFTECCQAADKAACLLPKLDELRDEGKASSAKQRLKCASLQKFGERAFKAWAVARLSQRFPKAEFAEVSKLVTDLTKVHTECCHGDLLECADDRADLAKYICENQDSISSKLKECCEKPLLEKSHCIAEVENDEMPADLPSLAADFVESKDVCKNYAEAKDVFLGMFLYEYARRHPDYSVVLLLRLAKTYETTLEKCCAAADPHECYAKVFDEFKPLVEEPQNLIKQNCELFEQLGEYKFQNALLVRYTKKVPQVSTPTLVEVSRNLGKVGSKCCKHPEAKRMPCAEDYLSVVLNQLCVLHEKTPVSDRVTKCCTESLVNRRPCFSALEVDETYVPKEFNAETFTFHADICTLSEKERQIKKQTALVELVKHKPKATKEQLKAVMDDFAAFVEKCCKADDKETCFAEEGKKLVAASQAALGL
# Chain of CYP1A2 (P05177 whole entry, species assumed): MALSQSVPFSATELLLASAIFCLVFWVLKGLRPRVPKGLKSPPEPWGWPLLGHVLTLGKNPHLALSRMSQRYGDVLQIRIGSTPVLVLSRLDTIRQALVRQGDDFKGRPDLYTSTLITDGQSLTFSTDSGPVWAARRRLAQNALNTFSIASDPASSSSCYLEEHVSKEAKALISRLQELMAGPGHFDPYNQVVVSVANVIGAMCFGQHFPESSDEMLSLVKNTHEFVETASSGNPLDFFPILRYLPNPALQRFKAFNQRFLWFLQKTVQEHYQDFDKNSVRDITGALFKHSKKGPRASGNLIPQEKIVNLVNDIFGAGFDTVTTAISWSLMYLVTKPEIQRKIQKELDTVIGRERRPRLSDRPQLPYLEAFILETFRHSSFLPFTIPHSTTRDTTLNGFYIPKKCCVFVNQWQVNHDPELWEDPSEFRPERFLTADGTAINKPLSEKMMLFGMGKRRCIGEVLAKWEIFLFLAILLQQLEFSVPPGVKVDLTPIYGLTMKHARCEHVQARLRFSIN
smiles,measurement,setting,value
"C#CCN[C@@H]1CCc2ccccc21 [rasagiline, R(+)-N-propargyl-1-aminoindan]","pharmacokinetics versus dose, in words",doses over the range of 1-10 mg,linear
same,absolute bioavailability,"human, in vivo",about 36%
same,"effect of food on Tmax, in words","human, in vivo",does not affect
same,excreted as unchanged drug in urine,"human, in vivo",Less than 1%
same,mean steady-state half life,"human, in vivo",3 h
same,mean volume of distribution at steady-state,"human, in vivo",87 L
same,elimination via feces,[2],7 % of total dose
same,elimination via urine,[2],62 % of total dose
same,total calculated recovery,"oral 14C-labeled rasagiline, over a period of 38 days",84 % of the dose
same,decrease of Cmax,taken with a high fat meal,approximately 60%
same,decrease of exposure (AUC),taken with a high fat meal,~20%
same,Plasma protein binding,plasma protein,88-94%
same,mean extent of binding to human albumin,human albumin,61-63%
same,"isoenzyme involved in rasagiline metabolism, in words",CYP1A2,CYP1A2 being the major isoenzyme involved
same,MAO-B inhibition,"platelet MAO-B; 3 days after daily dosing at 2 mg/day, maintained 3 days post-dose",Over 90%
same,MAO-B inhibition,platelet MAO-B; after a single rasagiline dose of 1 mg/day,25-35%
same,MAO-B inhibition,platelet MAO-B; after a single rasagiline dose of 2 mg/day,more than 55%
same,duration of platelet MAO-B inhibition after last dose,"platelet MAO-B; human, in vivo",at least 1 week
same,"MAO-B inhibition, in words","platelet MAO-B; multiple doses of 0.5, 1 and 2 mg per day",complete MAO-B inhibition
same,"MAO-B inhibition in platelets, in words",platelet MAO-B; recommended therapeutic dose,potent and irreversible inhibitor of MAO-B
same,"MAO-B inhibition, in words",[1],"potent, irreversible monoamine oxidase type B (MAO-B) selective inhibitor"
